In article PMC3767324, “Synthesis, Characterization, and BSA Binding Studies of Some New Benzamides Related to Schiff Base” (ISRN Organic Chemistry, 2013):
≈ marks a conversion by molar mass, not a printed value. Where “and” joins values, the source holds several entries; their conditions need not be identical. Equal values may be shown once.

Assays:
[1] = system: Bacillus subtilis (NCIM 2999); experiment: minimum inhibitory concentration by dilution method; format: cell-based; conditions: Bacillus subtilis, NCIM2999
[2] = DPPH free radical scavenging activity; conditions: DPPH 0.1 mM, absorbance at 517 nm; triplicate, mean ± SD
Description: The capacity to scavenge the stable free radical 2,2-diphenyl-1-picrylhydrazyl (DPPH) was monitored according to the Blois method. The test samples (10–100 μL) were mixed with 1 mL of DPPH (0.1 mM) solution and filled up with methanol to a final volume of 4 mL. Absorbance of the resulting solution was measured at 517 nm in a visible spectrophotometer (Model 166, Systronics, India). The free radical scavenging rate of the reaction solution was calculated as a percentage (%) of DPPH decolouration using the equation (1) I(%)=(Ablank−Asample/Ablank)×100, where A blank is the absorbance of the control reaction mixture excluding the test compounds, and A sample is the absorbance of the test compounds. Radical scavenging potential was expressed as IC50 value, which represents the sample concentration at which 50% of the DPPH radicals were scavenged. Tests were carried out in triplicate and the results were expressed as mean values ± standard deviations.
DPPH radical scavenging activity evaluation is a standard assay in antioxidant activity studies and offers a rapid technique for screening the radical scavenging activity of specific compounds [24]. The free radical scavenging activity of newly synthesized compounds was tested by their ability to bleach the stable radical DPPH. The activity was monitored by following the absorption at 517 nm in a visible spectrophotometer. In the presence of any free radical scavenger, this odd electron pairs up and causes the diminishing of absorption band which is proportional to the number of electrons taken up. The activity was studied at different concentrations for each compound. […] Resulting from a color change from purple to yellow the absorbance decreased when the antioxidant molecule can quench DPPH free radical through donation of hydrogen atom or by electron donating to form a stable DPPH molecule.

[3] = target: T1, bovine serum albumin (BSA) (Bos taurus, UniProt P02769); experiment: energy transfer from BSA to compound (Forster theory); format: binding; conditions: for J (spectral overlap): BSA emission / compound UV absorption; for R 0 (critical energy transfer distance): K^2 = 2/3, N = 1.311, Φ = 0.118
T1 construct: Bovine serum albumin (BSA), one of the major components in plasma protein; purchased Sigma Aldrich Bangalore
T1 sequence (P02769 25-607): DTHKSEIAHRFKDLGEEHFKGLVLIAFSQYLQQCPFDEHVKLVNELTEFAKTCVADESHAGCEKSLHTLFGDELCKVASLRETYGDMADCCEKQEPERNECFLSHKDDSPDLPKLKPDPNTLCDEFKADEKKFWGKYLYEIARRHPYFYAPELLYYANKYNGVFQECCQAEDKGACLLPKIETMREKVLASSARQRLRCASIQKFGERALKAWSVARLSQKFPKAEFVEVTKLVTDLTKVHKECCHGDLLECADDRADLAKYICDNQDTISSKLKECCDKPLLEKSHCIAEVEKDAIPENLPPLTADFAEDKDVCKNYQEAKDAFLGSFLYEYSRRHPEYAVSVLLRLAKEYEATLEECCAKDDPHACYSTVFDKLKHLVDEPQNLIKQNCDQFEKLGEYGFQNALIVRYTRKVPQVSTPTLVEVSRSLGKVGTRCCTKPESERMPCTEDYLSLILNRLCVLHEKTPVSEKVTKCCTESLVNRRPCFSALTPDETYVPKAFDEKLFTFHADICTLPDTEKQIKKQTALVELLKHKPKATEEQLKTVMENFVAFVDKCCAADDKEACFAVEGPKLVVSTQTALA
Text: The binding distance (r) between a protein residue (donor) and a bound drug molecule (acceptor) can be calculated from Foster's nonradiative energy transfer theory. The efficiency of energy transfer E and the distance between the acceptor and donor r can be defined as the following equation [36]: (4) E=1−(F/F0)=R06/R06+r^6, where r is the distance between the acceptor and donor; F and F 0 are the fluorescence intensities of BSA in the presence of and in the absence of quencher, respectively; R 0 is the critical energy transfer distance when the transfer efficiency is 50%. It is given by the following equation: (5) R06=8.8×10^−25K^2N^−4ΦJ.
K ^2 is a factor describing the spatial orientation factor related to the geometry of the donor and acceptor of dipoles; N is the refractive index of medium; Φ is the fluorescence quantum yield of the donor in the absence of acceptor; J is the effect of spectra overlap between the fluorescence emission spectrum of the donor and the UV-vis absorption spectrum of the acceptor, and J can be calculated by (6): (6) J=f(λ)ε(λ)λ^4Δλ/ΣF(λ)Δλ, where F(λ) is the corrected fluorescence intensity of the donor in the wavelength range from λ to λ + Δλ and ε(λ) is the molar absorption coefficient of the acceptor at wavelength λ. In the present case, K ^2 = 2/3, N = 1.311, and Φ = 0.118 for BSA molecules, respectively.

SMILES | MIC [1] [µg/mL] | IC50 DPPH [2] | E (efficiency of energy transfer) [3] | r (binding distance between donor BSA and acceptor) [3] [nm] | J (spectral overlap) [3] | R 0 (critical energy transfer distance) [3] [nm]
CC(=O)N(C(=O)c1cc(F)ccc1F)c1ccc(N=Cc2cc3ccccc3o2)cc1 [Compound 5a, N-acetyl-N-(4-((benzofuran-2-ylmethylene)amino)phenyl)-2,5-difluorobenzamide] | 12 (≈ 28.7 µM) | 97.5 ± 0.37 µg/mL (≈ 233 µM) | 0.11 | 3.77 | 1.05 × 10^−14 cm^3 L mol^−1 | 2.51
COc1ccc(C(=O)N(C(C)=O)c2ccc(N=Cc3cc4ccccc4o3)cc2)cc1 [Compound 5i, N-acetyl-N-(4-(benzofuran-2-ylmethyleneamino)phenyl)-4-methoxybenzamide] | 50 (≈ 121 µM) | 18.5 ± 0.17 µg/mL (≈ 44.9 µM) | 0.33 | 3.17 | 2.79 × 10^−14 cm^3 L mol^−1 | 2.83
CC(=O)N(C(=O)c1ccc(O)cc1)c1ccc(N=Cc2cc3ccccc3o2)cc1 [Compound 5j, N-acetyl-N-(4-((benzofuran-2-ylmethylene)amino)phenyl)-4-hydroxybenzamide] | 35 (≈ 87.8 µM) | 15.3 ± 0.11 µg/mL (≈ 38.4 µM) | 0.14 | 4.09 | 4.26 × 10^−14 cm^3 L mol^−1 | 3.02
CC(=O)N(C(=O)c1ccccc1)c1ccc(N=Cc2cc3ccccc3o2)cc1 [Compound 5c, N-acetyl-N -(4-((benzofuran-2-ylmethylene)amino)phenyl)benzamide] | 35 (≈ 91.5 µM) | 61.7 ± 0.55 µg/mL (≈ 161 µM) | 0.14 | 4.11 | 3.05 × 10^−14 cm^3 L mol^−1 | 3.04
CC(=O)N(C(=O)c1cc(F)cc(F)c1)c1ccc(N=Cc2cc3ccccc3o2)cc1 [Compound 5h, N-acetyl-N-(4-((benzofuran-2-ylmethylene)amino)phenyl)-3,5-difluorobenzamide] | 12.4 (≈ 29.6 µM) | > 100 µg/mL and 100 ± 0.19 µg/mL | 0.15 | 2.93 | 4.91 × 10^−14 cm^3 L mol^−1 | 2.16
CC(=O)N(C(=O)c1cc(F)c(F)c(F)c1)c1ccc(N=Cc2cc3ccccc3o2)cc1 [Compound 5g, N-acetyl-N-(4-(benzofuran-2-ylmethyleneamino)phenyl)-3,4,5-trifluorobenzamide] | 10 (≈ 22.9 µM) | > 100 µg/mL and >125 µg/mL | 0.31 | 3.07 | 2.37 × 10^−14 cm^3 L mol^−1 | 2.86
